Results as given in patent US12415803B2, “Fused imidazopyridines as reversible inhibitors of Brutons Tyrosine Kinase (BTK)” (Merck Patent GmbH, priority 2018, dated 2025).
pIC50: −log10 of the molar value.

Experiments:
full-length human BTK = full-length human BTK (Homo sapiens (Human), UniProt Q06187); assay: BTK IC50 Enzyme Assay (microfluidic off-chip mobility shift kinase assay); assay type: biochemical; details: Btk Enzymatic IC50 Assay, 90 min at 27 C;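 also: Read-out separates phosphorylated peptide product from substrate by their charge-to-mass difference, with IC50 fitted from log inhibitor concentration against percent enzyme activity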
Btk = Btk (Homo sapiens (Human), UniProt Q06187); assay: Btk PBMC IC50 Cell Assay (anti-IgM-induced CD69 expression on B cells); assay type: cell-based; details: anti-IgM-induced CD69 expression on CD19 positive cells in human PBMCs;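 also: freshly isolated human PBMCs, IC50 from concentration-response of the share of CD19+ cells expressing CD69 after anti-IgM BCR stimulation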
Chain of Btk (Q06187 whole entry): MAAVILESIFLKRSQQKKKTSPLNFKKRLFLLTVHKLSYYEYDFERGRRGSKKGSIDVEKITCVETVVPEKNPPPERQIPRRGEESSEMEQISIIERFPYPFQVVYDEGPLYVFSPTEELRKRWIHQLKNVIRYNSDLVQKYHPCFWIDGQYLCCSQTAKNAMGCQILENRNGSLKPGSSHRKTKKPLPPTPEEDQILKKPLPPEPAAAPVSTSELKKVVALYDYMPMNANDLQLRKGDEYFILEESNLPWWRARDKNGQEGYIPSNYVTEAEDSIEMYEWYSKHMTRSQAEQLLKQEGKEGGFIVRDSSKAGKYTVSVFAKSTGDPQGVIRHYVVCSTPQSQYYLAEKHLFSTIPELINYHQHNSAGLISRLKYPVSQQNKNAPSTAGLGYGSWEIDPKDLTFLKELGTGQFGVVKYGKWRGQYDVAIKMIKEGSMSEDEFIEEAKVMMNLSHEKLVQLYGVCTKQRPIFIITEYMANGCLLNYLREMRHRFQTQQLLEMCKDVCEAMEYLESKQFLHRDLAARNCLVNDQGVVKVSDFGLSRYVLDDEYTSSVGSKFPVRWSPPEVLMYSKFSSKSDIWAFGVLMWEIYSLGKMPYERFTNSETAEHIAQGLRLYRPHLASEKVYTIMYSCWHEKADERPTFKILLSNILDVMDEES

Chain of full-length human BTK (Q06187 whole entry): as above

pIC50 (full-length human BTK) | pIC50 (Btk) | Structure (SMILES)
> 9.00 | 8.00 to 9.00 | CC(C)n1cc(-c2nc3c(-c4ccc5c(c4)CCCCC5NC(=O)c4nc(C(C)(C)C)no4)ccnc3[nH]2)cn1 (centres unmarked) [Compound 106, 3-tert-Butyl-[1,2,4]oxadiazole-5-carboxylic acid {2-[2-(1-isopropyl-1H-pyrazol-4-yl)-3H-imidazo[4,5-b]pyridin-7-yl]-6,7,8,9-tetrahydro-5H-benzocyclohepten-5-yl}-amide]
> 9.00 | 8.00 to 9.00 | Cn1cc(-c2nc3c(-c4ccc5c(c4)OCCC[C@H]5NC(=O)c4noc(C(C)(C)C)n4)ccnc3[nH]2)cn1 [Compound 46, 5-tert-Butyl-[1,2,4]oxadiazole-3-carboxylic acid {(R)-8-[2-(1-methyl-1H-pyrazol-4-yl)-3H-imidazo[4,5-b]pyridin-7-yl]-2,3,4,5-tetrahydro-benzo[b]oxepin-5-yl}-amide]
8.00 to 9.00 | 7.00 to 8.00 | Cc1c(-c2nc3c(-c4ccc5c(c4)CCC[C@H]5NC(=O)c4nc(C5(C)CC5)no4)ccnc3[nH]2)cnn1C1CCOCC1 [Compound 154, 3-(1-Methyl-cyclopropyl)-[1,2,4]oxadiazole-5-carboxylic acid ((R)-6-{2-[5-methyl-1-(tetrahydro-pyran-4-yl)-1H-pyrazol-4-yl]-3H-imidazo[4,5-b]pyridin-7-yl}-1,2,3,4-tetrahydro-naphthalen-1-yl)-amide]
> 9.00 | 8.00 to 9.00 | Cc1cc(-c2nc3c(-c4ccc5c(c4)CCCCC5NC(=O)c4nc(C5(C)CC5)no4)ccnc3[nH]2)nn1C(C)C (centres unmarked) [Compound 117, 3-(1-Methyl-cyclopropyl)-[1,2,4]oxadiazole-5-carboxylic acid {2-[2-(1-isopropyl-5-methyl-1H-pyrazol-3-yl)-3H-imidazo[4,5-b]pyridin-7-yl]-6,7,8,9-tetrahydro-5H-benzocyclohepten-5-yl}-amide]
> 9.00 | 8.00 to 9.00 | Cc1c(-c2nc3c(-c4ccc5c(c4)CCCC5NC(=O)c4noc(C5(C)CC5)n4)ccnc3[nH]2)cnn1C1CCOCC1 (centres unmarked) [Compound 151, 5-(1-Methyl-cyclopropyl)-[1,2,4]oxadiazole-3-carboxylic acid (6-{2-[5-methyl-1-(tetrahydro-pyran-4-yl)-1H-pyrazol-4-yl]-3H-imidazo[4,5-b]pyridin-7-yl}-1,2,3,4-tetrahydro-naphthalen-1-yl)-amide]
8.00 to 9.00 | < 7.00 | Cc1nn(C(C)C)c(C)c1-c1nc2c(-c3ccc4c(c3)CCCC[C@@H]4NC(=O)c3noc(C4(C)CC4)n3)ccnc2[nH]1 [Compound 34, 5-(1-Methyl-cyclopropyl)-[1,2,4]oxadiazole-3-carboxylic acid {(S)-2-[2-(1-isopropyl-3,5-dimethyl-1H-pyrazol-4-yl)-3H-imidazo[4,5-b]pyridin-7-yl]-6,7,8,9-tetrahydro-5H-benzocyclohepten-5-yl}-amide]
> 9.00 | 8.00 to 9.00 | Cn1cc(-c2nc3c(-c4ccc5c(c4)CCCCC5NC(=O)c4cc(C5(C)CC5)on4)ccnc3[nH]2)cn1 (centres unmarked) [Compound 41, 5-(1-Methyl-cyclopropyl)-isoxazole-3-carboxylic acid {2-[2-(1-methyl-1H-pyrazol-4-yl)-3H-imidazo[4,5-b]pyridin-7-yl]-6,7,8,9-tetrahydro-5H-benzocyclohepten-5-yl}-amide]
8.00 to 9.00 | < 7.00 | Cn1cc(-c2nc3c(-c4ccc5c(c4)CCCC[C@H]5NC(=O)c4nnc(C(C)(C)C)o4)ccnc3[nH]2)cn1 [Compound 48, 5-tert-Butyl-[1,3,4]oxadiazole-2-carboxylic acid {(R)-2-[2-(1-methyl-1H-pyrazol-4-yl)-3H-imidazo[4,5-b]pyridin-7-yl]-6,7,8,9-tetrahydro-5H-benzocyclohepten-5-yl}-amide]
> 9.00 | 8.00 to 9.00 | Cn1cc(-c2nc3c(-c4ccc5c(c4)CCCC[C@@H]5NC(=O)c4nnc(C(C)(C)C)o4)ccnc3[nH]2)cn1 [Compound 49, 5-tert-Butyl-[1,3,4]oxadiazole-2-carboxylic acid {(S)-2-[2-(1-methyl-1H-pyrazol-4-yl)-3H-imidazo[4,5-b]pyridin-7-yl]-6,7,8,9-tetrahydro-5H-benzocyclohepten-5-yl}-amide]
7.00 to 8.00 | < 7.00 | Cc1nn(C)c(C)c1-c1nc2c(-c3ccc4c(c3)CCCC[C@@H]4NC(=O)c3nc(C(C)(C)C)no3)ccnc2[nH]1 [Compound 141, 3-tert-Butyl-[1,2,4]oxadiazole-5-carboxylic acid {(S)-2-[2-(1,3,5-trimethyl-1H-pyrazol-4-yl)-3H-imidazo[4,5-b]pyridin-7-yl]-6,7,8,9-tetrahydro-5H-benzocyclohepten-5-yl}-amide]
8.00 to 9.00 | 7.00 to 8.00 | Cc1nn(C)c(C)c1-c1nc2c(-c3ccc4c(c3)CCCC[C@@H]4NC(=O)c3noc(C4(C)CC4)n3)ccnc2[nH]1 [Compound 13, 5-(1-Methyl-cyclopropyl)-[1,2,4]oxadiazole-3-carboxylic acid {(S)-2-[2-(1,3,5-trimethyl-1H-pyrazol-4-yl)-3H-imidazo[4,5-b]pyridin-7-yl]-6,7,8,9-tetrahydro-5H-benzocyclohepten-5-yl}-amide]
8.00 to 9.00 | 7.00 to 8.00 | Cc1nn(C(C)C)cc1-c1nc2c(-c3ccc4c(c3)CCCC[C@@H]4NC(=O)c3nc(C4(C)CC4)no3)ccnc2[nH]1 [Compound 60, 3-(1-Methyl-cyclopropyl)-[1,2,4]oxadiazole-5-carboxylic acid {(S)-2-[2-(1-isopropyl-3-methyl-1H-pyrazol-4-yl)-3H-imidazo[4,5-b]pyridin-7-yl]-6,7,8,9-tetrahydro-5H-benzocyclohepten-5-yl}-amide]
8.00 to 9.00 | 7.00 to 8.00 | Cn1cc(-c2nc3c(-c4ccc5c(c4)CCCC[C@@H]5NC(=O)c4noc(C5(C)CC5)n4)ccnc3[nH]2)cn1 [Compound 55, 5-(1-Methyl-cyclopropyl)-[1,2,4]oxadiazole-3-carboxylic acid {(S)-2-[2-(1-methyl-1H-pyrazol-4-yl)-3H-imidazo[4,5-b]pyridin-7-yl]-6,7,8,9-tetrahydro-5H-benzocyclohepten-5-yl}-amide]
8.00 to 9.00 | < 7.00 | Cc1nn(C)c(C)c1-c1nc2c(-c3ccc4c(c3)CCCC[C@@H]4NC(=O)c3nnc(C(C)(C)C)o3)ccnc2[nH]1 [Compound 122, 5-tert-Butyl-[1,3,4]oxadiazole-2-carboxylic acid {(S)-2-[2-(1,3,5-trimethyl-1H-pyrazol-4-yl)-3H-imidazo[4,5-b]pyridin-7-yl]-6,7,8,9-tetrahydro-5H-benzocyclohepten-5-yl}-amide]

Structure (SMILES) | pIC50 (full-length human BTK) | pIC50 (Btk)
Cn1cc(-c2nc3c(-c4ccc5c(c4)CCCCC5NC(=O)N4CC(OC(C)(C)C)C4)ccnc3[nH]2)cn1 (centres unmarked) [Compound 43, 3-tert-Butoxy-azetidine-1-carboxylic acid {2-[2-(1-methyl-1H-pyrazol-4-yl)-3H-imidazo[4,5-b]pyridin-7-yl]-6,7,8,9-tetrahydro-5H-benzocyclohepten-5-yl}-amide] | > 9.00 | 8.00 to 9.00
Cn1cc(-c2nc3nccc(-c4ccc5c(c4)CCCC[C@H]5NC(=O)N4CC(OC(C)(C)C)C4)c3[nH]2)cn1 [Compound 50, 3-tert-Butoxy-azetidine-1-carboxylic acid {(R)-2-[2-(1-methyl-1H-pyrazol-4-yl)-3H-imidazo[4,5-b]pyridin-7-yl]-6,7,8,9-tetrahydro-5H-benzocyclohepten-5-yl}-amide] | 8.00 to 9.00 | < 7.00
